Test results taken from the supplement of paper PMC4862054.

Key:
Conditions in all cases: incubation time: 72 h
[1] = test system: Hs578T; assay: drug sensitivity score (DSS), CellTiter-Glo (DSS (AUC-based score)); higher = stronger drug effect (viability inhibition or cytotoxicity); extreme values may be limits of the assay
Method in brief: (§1)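 Breast cancer cell lines were seeded in 20 µl suspension into 384-well plates already holding compound and incubated for 72 h. Each compound was tested at 5 concentrations in 10-fold steps across its own 10,000-fold range. Plates were normalised to 0.1 % DMSO and a positive kill control after CellTox Green and then CellTiter-Glo readings. The area under the fitted dose-response curve served as the basis for the drug sensitivity score.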

[2] = test system: HCC1143; assay: as above
Method in brief: as §1

[3] = test system: DU-4475; assay: as above
Method in brief: as §1

[4] = test system: SK-BR-3; assay: as above
Method in brief: as §1

[5] = test system: MCF-10A; assay: as above
Method in brief: as §1

[6] = test system: CAL-120; assay: as above
Method in brief: as §1

[7] = test system: BT-549; assay: as above
Method in brief: as §1

[8] = test system: CAL-148; assay: as above
Method in brief: as §1

[9] = test system: MDA-MB-453; assay: as above
Method in brief: as §1

[10] = test system: HDQ-P1; assay: as above
Method in brief: as §1

[11] = test system: MDA-MB-468; assay: as above
Method in brief: as §1

[12] = test system: BT-474; assay: as above
Method in brief: as §1

[13] = test system: MDA-MB-231; assay: as above
Method in brief: as §1

[14] = test system: Hs578T; assay: normalised viability (% of control), CellTiter-Blue; higher = more viable cells (about 100 = DMSO control)
Method in brief: (§2)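 Breast cancer cell lines in 20 µl suspension were seeded onto 384-well plates pre-loaded with compound dissolved in 5 µl medium, then incubated 72 h. CellTiter-Blue reagent (2.5 µl) was added for 2 h at 37 °C and fluorescence read at 560/590 nm. Each plate was normalised to vehicle (100) and a positive kill control (0), with Z'-factor quality control. The value is normalised viability at one listed concentration of the series.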

[15] = test system: MFM-223; assay: as above
Method in brief: as §2

[16] = test system: HCC1143; assay: as above
Method in brief: as §2

[17] = test system: DU-4475; assay: as above
Method in brief: as §2

[18] = test system: BT-549; assay: as above
Method in brief: as §2

[19] = test system: HCC1937; assay: as above
Method in brief: as §2

[20] = test system: CAL-148; assay: as above
Method in brief: as §2

[21] = test system: MDA-MB-453; assay: as above
Method in brief: as §2

[22] = test system: HDQ-P1; assay: as above
Method in brief: as §2

[23] = test system: CAL-51; assay: as above
Method in brief: as §2

[24] = test system: MDA-MB-231; assay: as above
Method in brief: as §2

Which drug sensitivity score [1] does the source give for `CCc1cnn2c(NCc3ccc[n+]([O-])c3)cc(N3CCCC[C@H]3CCO)nc12` [Dinaciclib] here?
The drug sensitivity score was 18.7.

What about the drug sensitivity score [2] of the same compound?
Its drug sensitivity score is 19.1.

What about the drug sensitivity score [3] of the same compound?
The drug sensitivity score was 16.6.

And the drug sensitivity score [4]?
Its drug sensitivity score is 25.1.

And the drug sensitivity score [5]?
Its drug sensitivity score is 12.9.

What about the drug sensitivity score [6] of the same compound?
The drug sensitivity score was 13.6.

What about the drug sensitivity score [7] of the same compound?
Its drug sensitivity score is 19.6.

What about the drug sensitivity score [8] of the same compound?
The drug sensitivity score was 7.54.

What about the drug sensitivity score [9] of the same compound?
The drug sensitivity score was 16.

And the drug sensitivity score [10]?
Its drug sensitivity score is 18.2.

What about the drug sensitivity score [11] of the same compound?
The drug sensitivity score was 18.3.

What about the drug sensitivity score [12] of the same compound?
The drug sensitivity score was 18.3.

What about the drug sensitivity score [13] of the same compound?
The drug sensitivity score was 25.4.

Which drug sensitivity score [1] does the source give for `Cc1c(C(=O)Nc2ccc(N3C[C@@H](C)O[C@@H](C)C3)nc2)cccc1-c1ccc(OC(F)(F)F)cc1` [Erismodegib] here?
The drug sensitivity score was 0.

What about the drug sensitivity score [2] of the same compound?
Its drug sensitivity score is 0.

What about the drug sensitivity score [3] of the same compound?
The drug sensitivity score was 0.

And the drug sensitivity score [4]?
The drug sensitivity score was 0.

What about the drug sensitivity score [5] of the same compound?
Its drug sensitivity score is 0.

What about the drug sensitivity score [6] of the same compound?
Its drug sensitivity score is 0.

And the drug sensitivity score [7]?
The drug sensitivity score was 1.37.

And the drug sensitivity score [8]?
Its drug sensitivity score is 0.

And the drug sensitivity score [9]?
Its drug sensitivity score is 0.

What about the drug sensitivity score [10] of the same compound?
Its drug sensitivity score is 0.664.

And the drug sensitivity score [11]?
The drug sensitivity score was 1.28.

What about the drug sensitivity score [12] of the same compound?
Its drug sensitivity score is 3.21.

What about the drug sensitivity score [13] of the same compound?
Its drug sensitivity score is 0.

Which results are given for `COc1cc(Nc2ncc(F)c(Nc3ccc4c(n3)N(COP(=O)(O)O)C(=O)C(C)(C)O4)n2)cc(OC)c1OC` [Fostamatinib]?
drug sensitivity score [1]: 4.77; drug sensitivity score [2]: 1.25; drug sensitivity score [3]: 0; drug sensitivity score [4]: 1.13; drug sensitivity score [5]: 7.38; drug sensitivity score [6]: 5.15; drug sensitivity score [7]: 4.31; drug sensitivity score [8]: 0; drug sensitivity score [9]: 0; drug sensitivity score [10]: 2.19; drug sensitivity score [11]: 0; drug sensitivity score [12]: 4.12; drug sensitivity score [13]: 6.92

How did the drug sensitivity score [1] turn out when `CC(C)NC[C@@H](C(=O)N1CCN(c2ncnc3c2[C@H](C)C[C@H]3O)CC1)c1ccc(Cl)cc1` [GDC-0068] was run?
The drug sensitivity score was 3.59.

And the drug sensitivity score [2]?
The drug sensitivity score was 2.35.

What about the drug sensitivity score [3] of the same compound?
Its drug sensitivity score is 1.13.

What about the drug sensitivity score [4] of the same compound?
Its drug sensitivity score is 6.46.

What about the drug sensitivity score [5] of the same compound?
Its drug sensitivity score is 3.41.

What about the drug sensitivity score [6] of the same compound?
The drug sensitivity score was 3.43.

What about the drug sensitivity score [7] of the same compound?
Its drug sensitivity score is 6.02.

What about the drug sensitivity score [8] of the same compound?
Its drug sensitivity score is 19.6.

What about the drug sensitivity score [9] of the same compound?
The drug sensitivity score was 10.4.

And the drug sensitivity score [10]?
Its drug sensitivity score is 7.19.

And the drug sensitivity score [11]?
Its drug sensitivity score is 8.65.

And the drug sensitivity score [12]?
Its drug sensitivity score is 0.706.

What about the drug sensitivity score [13] of the same compound?
Its drug sensitivity score is 0.

How did the drug sensitivity score [1] turn out when `CCCc1cc(C)[nH]c(=O)c1CNC(=O)c1cc(-c2ccnc(N3CCN(C)CC3)c2)cc2c1cnn2C(C)C` [GSK343] was run?
The drug sensitivity score was 0.

What about the drug sensitivity score [2] of the same compound?
The drug sensitivity score was 0.

And the drug sensitivity score [3]?
Its drug sensitivity score is 1.22.

And the drug sensitivity score [4]?
Its drug sensitivity score is 6.24.

What about the drug sensitivity score [5] of the same compound?
The drug sensitivity score was 0.

What about the drug sensitivity score [6] of the same compound?
The drug sensitivity score was 0.

What about the drug sensitivity score [7] of the same compound?
Its drug sensitivity score is 1.73.

What about the drug sensitivity score [8] of the same compound?
The drug sensitivity score was 0.724.

What about the drug sensitivity score [9] of the same compound?
Its drug sensitivity score is 6.37.

And the drug sensitivity score [10]?
Its drug sensitivity score is 0.

What about the drug sensitivity score [11] of the same compound?
The drug sensitivity score was 5.85.

What about the drug sensitivity score [12] of the same compound?
The drug sensitivity score was 3.79.

What about the drug sensitivity score [13] of the same compound?
The drug sensitivity score was 4.65.

Which results are given for `COc1cc2c(cc1-c1c(C)noc1C)ncc1[nH]c(=O)n([C@H](C)c3ccccn3)c12` [I-BET151]?
drug sensitivity score [1]: 9.14; drug sensitivity score [2]: 1.94; drug sensitivity score [3]: 3.45; drug sensitivity score [4]: 3.27; drug sensitivity score [5]: 5.37; drug sensitivity score [6]: 5.1; drug sensitivity score [7]: 8.5; drug sensitivity score [8]: 0; drug sensitivity score [9]: 7.96; drug sensitivity score [10]: 3.02; drug sensitivity score [11]: 3.38; drug sensitivity score [12]: 3.77; drug sensitivity score [13]: 2.63

What does the source list for `CC(C)n1nc(-c2ccc3oc(N)nc3c2)c2c(N)ncnc21` [INK128]?
drug sensitivity score [1]: 13.8; drug sensitivity score [2]: 13; drug sensitivity score [3]: 8.44; drug sensitivity score [4]: 20.3; drug sensitivity score [5]: 12; drug sensitivity score [6]: 14.9; drug sensitivity score [7]: 15.9; drug sensitivity score [8]: 14.7; drug sensitivity score [9]: 14.8; drug sensitivity score [10]: 13.5; drug sensitivity score [11]: 13.5; drug sensitivity score [12]: 11.5; drug sensitivity score [13]: 11.2

Which normalised viability ([14]; 10 nM) does the source give for `Cc1c(C(=O)Nc2ccc(N3C[C@@H](C)O[C@@H](C)C3)nc2)cccc1-c1ccc(OC(F)(F)F)cc1` [NVP-LDE225] here?
The normalised viability was 118%.

What about the normalised viability ([14]; 1000 nM) of the same compound?
Its normalised viability is 107%.

And the normalised viability ([14]; 10000 nM)?
The normalised viability was 87%.

What about the normalised viability ([15]; 10 nM) of the same compound?
Its normalised viability is 93.5%.

And the normalised viability ([15]; 1000 nM)?
Its normalised viability is 93.8%.

What about the normalised viability ([15]; 10000 nM) of the same compound?
Its normalised viability is 88.2%.

And the normalised viability ([16]; 10 nM)?
The normalised viability was 108%.

What about the normalised viability ([16]; 1000 nM) of the same compound?
The normalised viability was 102%.

And the normalised viability ([16]; 10000 nM)?
The normalised viability was 96.4%.

What about the normalised viability ([17]; 3 nM) of the same compound?
Its normalised viability is 105%.

And the normalised viability ([17]; 30 nM)?
The normalised viability was 112%.

And the normalised viability ([17]; 100 nM)?
The normalised viability was 96%.

And the normalised viability ([18]; 10 nM)?
Its normalised viability is 113%.

And the normalised viability ([18]; 1000 nM)?
The normalised viability was 96%.

And the normalised viability ([18]; 10000 nM)?
The normalised viability was 97.3%.

What about the normalised viability ([19]; 10 nM) of the same compound?
Its normalised viability is 38.8%.

And the normalised viability ([19]; 1000 nM)?
Its normalised viability is 92.7%.

What about the normalised viability ([19]; 10000 nM) of the same compound?
Its normalised viability is 82.1%.

And the normalised viability ([20]; 3 nM)?
Its normalised viability is 99.6%.

And the normalised viability ([20]; 30 nM)?
The normalised viability was 101%.

What about the normalised viability ([20]; 100 nM) of the same compound?
Its normalised viability is 106%.

What about the normalised viability ([21]; 3 nM) of the same compound?
Its normalised viability is 98.9%.

What about the normalised viability ([21]; 30 nM) of the same compound?
The normalised viability was 88.7%.

And the normalised viability ([21]; 100 nM)?
Its normalised viability is 105%.

And the normalised viability ([22]; 3 nM)?
The normalised viability was 76.2%.

And the normalised viability ([22]; 30 nM)?
The normalised viability was 84%.

What about the normalised viability ([22]; 100 nM) of the same compound?
Its normalised viability is 84.9%.

And the normalised viability ([23]; 3 nM)?
Its normalised viability is 105%.

What about the normalised viability ([23]; 30 nM) of the same compound?
Its normalised viability is 101%.

What about the normalised viability ([23]; 100 nM) of the same compound?
The normalised viability was 101%.

What about the normalised viability ([24]; 10 nM) of the same compound?
Its normalised viability is 121%.

And the normalised viability ([24]; 1000 nM)?
Its normalised viability is 102%.

What about the normalised viability ([24]; 10000 nM) of the same compound?
Its normalised viability is 82.9%.

`CN1CCc2c(c3ccccc3n2Cc2ccc(C(=O)NO)cc2)C1` [Tubastatin A] was tested. Which drug sensitivity score [1] did it give?
Its drug sensitivity score is 0.

And the drug sensitivity score [2]?
Its drug sensitivity score is 2.45.

What about the drug sensitivity score [3] of the same compound?
Its drug sensitivity score is 0.

What about the drug sensitivity score [4] of the same compound?
Its drug sensitivity score is 1.22.

And the drug sensitivity score [5]?
Its drug sensitivity score is 0.

And the drug sensitivity score [6]?
Its drug sensitivity score is 0.

And the drug sensitivity score [7]?
Its drug sensitivity score is 0.314.

What about the drug sensitivity score [8] of the same compound?
Its drug sensitivity score is 0.

And the drug sensitivity score [9]?
The drug sensitivity score was 0.

And the drug sensitivity score [10]?
The drug sensitivity score was 0.

And the drug sensitivity score [11]?
Its drug sensitivity score is 0.

And the drug sensitivity score [12]?
Its drug sensitivity score is 0.

What about the drug sensitivity score [13] of the same compound?
The drug sensitivity score was 0.
